# Measurements reported in patent publication US20050277612A1, “Methods, compositions and compound assays for inhibiting amyloid-beta protein production” (priority 2004, published 2005).
# Legend:
# [1] = system: SPHK2 RNA; assay: SPHK2 RNA levels via real time PCR in KD virus infected cells; type: cell-based, Homo Sapiens; conditions: infected SH-SY5Y cells, normalized to household keeping genes (GAPDH)
# From the text: Upon identification of protein kinase involved of APP processing, it is essential to evaluate whether the kinase is expressed in the tissue and cells of interest. This can be achieved by measuring RNA and/or protein levels. In recent years, RNA levels are being quantified through real time PCR technologies, whereby the RNA is first transcribed to cDNA and then the amplification of the cDNA of interest is monitored during a PCR reaction. The amplification plot and the resulting Ct value are indicators for the amount of RNA present in the sample. To assess whether SPHK cDNA is expressed in the human brain, real time PCR with GAPDH specific primers and specific primers for polynucleotides coding for the SPHK polypeptide (Table 3) is performed on human total brain, human cerebral cortex, and human hippocampal total RNA (BD Biosciences). GAPDH RNA is detected with a Taqman probe, while for the polynucleotides of the invention SybrGreen is used. 40 ng of RNA is transcribed to DNA using the MultiScribe Reverse Transcriptase (50 U/μl) enzyme (Applied BioSystems). […]
# (§1) Adenoviral knock down constructs are used to transduce mouse, rat or human primary neuronal cells and/or cell lines (e.g. HEK293, SH-SY5Y, IMR-32, SK-N—SH, SK-N-MC, H4, CHO, COS, HeLa) stably over-expressing APPwt or not. […] In addition, RNA is isolated from these infected cells and SPHK2 RNA levels are determined via real time PCR. […]
# [2] = system: amyloid beta 1-42 levels in the conditioned medium of SH-SY5Y cells; assay: Amyloid beta 1-42 ELISA after adenoviral knock down of SPHK2; type: cell-based; conditions: SH-SY5Y cells co-infected with adenoviruses expressing APPwt and the KD sequence, compared to GL2 KD virus infected cells
# Procedure: Cells seeded in collagen-coated plates at a cell density of 15000 cells/well (384 well plate) in DMEM (10% FBS), are infected 24 h later with 1 μl or 0.2 μl of adenovirus (corresponding to an average multiplicity of infection (MOI) of 120 and 24 respectively). The following day, the virus is washed away and DMEM (25 mM Hepes; […]) is added to the cells. Amyloid-beta peptides are allowed to accumulate during 24 h. The ELISA plate is prepared by coating with a capture antibody (JRF/cAbeta42/26) (obtained from M Mercken, Johnson and Johnson Pharmaceutical Research and Development, B-2340 Beerse, Belgium) overnight in buffer 42 (Table 2) at a concentration of 2.5 μg/ml. The excess capture antibody is washed away the next morning with PBS and the ELISA plate is then blocked overnight with casein buffer (see Table 2) at 4° C. […] Following the removal of excess detection antibody by a wash with PBS-Tween20 and PBS, HRP activity is detected via addition of luminol substrate (Roche), which is converted into a chemiluminescent signal by the HRP enzyme. […]
# as §1
sequence,measurement,setting,value
ACTTCTGCATCTACACCTACC [SEQ ID NO: 6],SPHK2 RNA levels,[1],reduced
same,amyloid beta 1-42 levels in the conditioned medium,[2],reduction
